Experimental data as given in patent US20210008175A1, “BACTERIOPHAGE LYSIN AND ANTIBIOTIC COMBINATIONS AGAINST GRAM POSITIVE BACTERIA” (priority 2012, published 2021).
Values after ≈ are worked out from the molar mass of the structure shown. Like-named read-outs stand apart in the source and are kept apart here.

Assays:
[1] = tested on: S. aureus; assay: Murine bacteremia model, survival; format: in vivo, BALB/c mice; conditions: for 24 hour survival rate / 72 hour survival rate: high challenge (10^9 CFU MRSA MW2), dosing at 2 hours
[2] = tested on: Staphylococcus aureus (MRSA and MSSA strains); assay: Synergy time-kill assay (6 hours, combination compared to most active single agent); format: cell-based; conditions: ½ MIC PlySs2 or ¼ MIC vancomycin alone, up to 6 hours
[3] = tested on: Staphylococcus aureus; assay: MIC, broth microdilution (CLSI M07-A9); format: cell-based
[4] = tested on: S. aureus; assay: Cell envelope binding of BODIPY-fluorescein-labeled antibiotics; format: cell-based
Description: As a complement to the synergy studies, daptomycin and vancomycin cell envelope-binding was examined using BODIPY-fluorescein-labeled antibiotics in the presence and absence of sub-MIC levels of CF-301. […] Similarly, cell wall-labeling with vancomycin occurs within 5 minutes in the presence of CF-301 (⅛^th MIC) versus 30 minutes without CF-301 (FIG. 20B). For both antibiotics, the labeling was first observed at bacterial division planes.

[5] = tested on: MRSA Staphylococcus aureus strain (MW2); assay: microbe, parasite or virus in culture; format: cell-based; conditions: for MIC: Staphylococcus aureus, MRSA; for antibiotic MIC, starting value: before serial passage
[6] = tested on: Staphylococcus aureus (MRSA and MSSA strains); assay: Time kill assay, single agents at 1×MIC (CLSI); format: cell-based; conditions: 1×MIC
[7] = tested on: MRSA strain ATCC 700699 and MSSA strain ATCC 25923; assay: microbe, parasite or virus in culture; format: cell-based, Staphylococcus aureus; conditions: Staphylococcus aureus
[8] = tested on: MRSA S. aureus strains; assay: Dual agent MIC assay (PlySs2 and daptomycin together, broth microdilution); format: cell-based; conditions: for MIC combo: PlySs2 and daptomycin combined; for MIC: Staphylococcus aureus, MRSA
[9] = tested on: MRSA strain 269 (MW2); assay: Combination MIC study in the presence of 15% surfactant (Survanta); format: cell-based, Staphylococcus aureus; conditions: PlySs2 plus daptomycin
[10] = tested on: MRSA strain MW2 and MSSA strain ATCC 29213; assay: MIC in the presence of surfactant (Survanta), broth microdilution; format: cell-based, Staphylococcus aureus
[11] = vancomycin 110 mg/kg twice daily, PlySs2 5.25 mg/kg (FIG. 27E)
[12] = DRSA (n = 8), with reducing agent
[13] = LRSA (n = 5), with reducing agent
[14] = MRSA (n = 45), with reducing agent
[15] = MSSA (n-28), with reducing agent
[16] = VISA (n = 10), with reducing agent
[17] = VRSA (n = 14), with reducing agent
[18] = daptomycin 50 mg/kg once daily, PlySs2 5.25 mg/kg (FIG. 27B)

In the case of `CN[C@H](CC(C)C)C(=O)N[C@H]1C(=O)N[C@@H](CC(N)=O)C(=O)N[C@H]2C(=O)N[C@H]3C(=O)N[C@H](C(=O)N[C@H](C(=O)O)c4cc(O)cc(O)c4-c4cc3ccc4O)[C@H](O)c3ccc(c(Cl)c3)Oc3cc2cc(c3O[C@@H]2O[C@H](CO)[C@@H](O)[C@H](O)[C@H]2O[C@H]2C[C@](C)(N)[C@H](O)[C@H](C)O2)Oc2ccc(cc2Cl)[C@H]1O` [Vancomycin, vancomycin], the “24 hour survival rate” value [1, 11] is reported as 20%, the “72 hour survival rate” value [1, 11] is reported as 3% and the “effectiveness alone at sub-MIC doses” value [2] is reported as “ineffective or poorly effective”. The MIC90 [3, 12] was 1, the “MIC90 [uM]” value [3, 12] was 0.7 µM (≈ 1.01 µg/mL) and the MIC90 [3, 13] was 1. It also gave an MIC90 [3, 14] of 1, an MIC90 [3, 15] of 1 and an MIC90 ([3]; Staphylococcus aureus) of 0.7 µM (≈ 1.01 µg/mL). It also gave an MIC90 ([3]; Staphylococcus aureus, MRSA) of 0.7 µM (≈ 1.01 µg/mL), an MIC90 ([3]; Staphylococcus aureus, MSSA) of 0.7 µM (≈ 1.01 µg/mL) and an MIC90 ([3]; Staphylococcus aureus, VISA) of 2.7 µM (≈ 3.91 µg/mL). For the same compound, the MIC90 ([3]; Staphylococcus aureus, VRSA) was > 10.6 µM, the MIC90 [3, 16] was 4 and the MIC90 [3, 17] was >16. The “time to cell wall-labeling with vancomycin” value ([4]; in the presence of CF-301 (⅛^th MIC)) was ≤ 5 min, the “time to cell wall-labeling with vancomycin” value ([4]; without CF-301) was 30 min and the MIC ([5]; 600 h, read-out: vancomycin MIC, ending values, passaged with PlySs2 (8 ug/ml) plus vancomycin, 25 day) was 4 µg/mL. The MIC ([5]; 600 h, read-out: vancomycin MIC, ending values, three vancomycin-only cultures, 25-day study) was 16 µg/mL (≈ 11 µM), the “antibiotic MIC, starting value” [5] was 1 µg/mL and the “increase of vancomycin MIC” value ([5]; passaged with PlySs2 (8 ug/ml) plus vancomycin) was 2 to 4 fold. The “vancomycin MIC, ending values” ([5]; passaged with PlySs2 (8 ug/ml) plus vancomycin, 25 day) was 2 µg/mL, the “increase of vancomycin MIC” value ([5]; vancomycin-only cultures, 25-day study) was 16 fold and the “kill within 6 hours” value [6] was 2 log10.
With `CCCCCCCCCC(=O)N[C@@H](Cc1c[nH]c2ccccc12)C(=O)N[C@H](CC(N)=O)C(=O)N[C@@H](CC(=O)O)C(=O)N[C@@H]1C(=O)NCC(=O)N[C@@H](CCCN)C(=O)N[C@@H](CC(=O)O)C(=O)N[C@H](C)C(=O)N[C@@H](CC(=O)O)C(=O)NCC(=O)N[C@H](CO)C(=O)N[C@@H]([C@H](C)CC(=O)O)C(=O)N[C@@H](CC(=O)c2ccccc2N)C(=O)O[C@@H]1C` [Daptomycin] the MIC ([7]; 504 h, read-out: MIC in daptomycin resistant clones) was 18 µg/mL (≈ 11.1 µM), the MIC ([7]; read-out: MIC before daptomycin resistance selection) was 1 µg/mL (≈ 0.617 µM) and the “24 hour survival rate” value [1, 18] was 47%. For the same compound, the “72 hour survival rate” value [1, 18] was 31%, the “survival at 72 hours” value ([1]; low challenge model (up to 7×10^6 CFU MRSA MW2), single dose at 4 hours, PlySs2 1.25 mg/kg, daptomycin 2 mg/kg) was 23% and the Fold reduction ([8]; MRSA strain 223) was 128. The MIC combo ([8]; MRSA strain 223) was 0.0075 µg/mL, the Fold reduction ([8]; MRSA strain 241) was 256 and the MIC combo ([8]; MRSA strain 241) was 0.0037 µg/mL. The Fold reduction ([8]; MRSA strain 263) was 128, the MIC combo ([8]; MRSA strain 263) was 0.0075 µg/mL and the Fold reduction ([8]; MRSA strain 269 (MW2)) was 64. For the same compound, the MIC combo ([8]; MRSA strain 269 (MW2)) was 0.015 µg/mL, the Fold reduction ([8]; MRSA strain 270) was 64 and the MIC combo ([8]; MRSA strain 270) was 0.015 µg/mL. The Fold reduction ([8]; MRSA strain 553) was 128, the MIC combo ([8]; MRSA strain 553) was 0.0075 µg/mL and the Fold reduction ([8]; MRSA strain 650) was 64. It also gave an MIC combo ([8]; MRSA strain 650) of 0.015 µg/mL, a Fold reduction ([8]; MRSA strain 827) of 128 and an MIC combo ([8]; MRSA strain 827) of 0.0075 µg/mL. For the same compound, the Fold reduction ([8]; MRSA strain 828) was 128, the MIC combo ([8]; MRSA strain 828) was 0.0075 µg/mL and the Fold reduction ([8]; MRSA strain 829) was 128. For the same compound, the MIC combo ([8]; MRSA strain 829) was 0.0075 µg/mL, the Fold reduction ([8]; MRSA strain 830) was 64 and the MIC combo ([8]; MRSA strain 830) was 0.015 µg/mL. For the same compound, the Fold reduction ([8]; MRSA strain 833) was 128, the MIC combo ([8]; MRSA strain 833) was 0.0075 µg/mL and the “fold reduction in the effective MIC” value ([8]; PlySs2 and daptomycin together, a dozen MRSA strains) was 16-256 fold. It also gave an MIC ([8]; MRSA strain 223, single-agent, read-out: MIC alone) of 1 µg/mL (≈ 0.617 µM), an MIC ([8]; MRSA strain 241, single-agent, read-out: MIC alone) of 1 µg/mL (≈ 0.617 µM) and an MIC ([8]; MRSA strain 263, single-agent, read-out: MIC alone) of 1 µg/mL (≈ 0.617 µM). For the same compound, the MIC ([8]; MRSA strain 269 (MW2), single-agent, read-out: MIC alone) was 1 µg/mL (≈ 0.617 µM), the MIC ([8]; MRSA strain 270, single-agent, read-out: MIC alone) was 1 µg/mL (≈ 0.617 µM) and the MIC ([8]; MRSA strain 553, single-agent, read-out: MIC alone) was 1 µg/mL (≈ 0.617 µM). For the same compound, the MIC ([8]; MRSA strain 650, single-agent, read-out: MIC alone) was 1 µg/mL (≈ 0.617 µM), the MIC ([8]; MRSA strain 827, single-agent, read-out: MIC alone) was 1 µg/mL (≈ 0.617 µM) and the MIC ([8]; MRSA strain 828, single-agent, read-out: MIC alone) was 1 µg/mL (≈ 0.617 µM). For the same compound, the MIC ([8]; MRSA strain 829, single-agent, read-out: MIC alone) was 1 µg/mL (≈ 0.617 µM), the MIC ([8]; MRSA strain 830, single-agent, read-out: MIC alone) was 1 µg/mL (≈ 0.617 µM) and the MIC ([8]; MRSA strain 833, single-agent, read-out: MIC alone) was 1 µg/mL (≈ 0.617 µM). The MIC ([8]; daptomycin as single agent, read-out: MIC) was 1 µg/mL (≈ 0.617 µM), the MIC ([8]; daptomycin with 0.25× MIC PlySs2, read-out: MIC) was 0.0075 µg/mL (≈ 0.00463 µM) and the “decrease of MIC” value ([8]; daptomycin with 0.25× MIC PlySs2) was 128 fold. For the same compound, the “degree of potency enhancement” value ([8]; daptomycin with PlySs2, across 12 MRSA strains) was 64 to 256 fold, the MIC90 [3, 12] was 16 and the MIC90 [3, 13] was 1. For the same compound, the MIC90 [3, 14] was 1, the MIC90 [3, 15] was 1 and the MIC90 ([3]; Staphylococcus aureus, DRSA (n = 8), with reducing agent, read-out: MIC90) was 9.9 µM (≈ 16 µg/mL). It also gave an MIC90 ([3]; Staphylococcus aureus, LRSA (n = 5), with reducing agent, read-out: MIC90) of 0.6 µM (≈ 0.972 µg/mL), an MIC90 ([3]; Staphylococcus aureus, MRSA, MRSA (n = 45), with reducing agent, read-out: MIC90) of 0.6 µM (≈ 0.972 µg/mL) and an MIC90 ([3]; Staphylococcus aureus, MSSA, MSSA (n-28), with reducing agent, read-out: MIC90) of 0.6 µM (≈ 0.972 µg/mL). For the same compound, the MIC90 ([3]; Staphylococcus aureus, VISA, VISA (n = 10), with reducing agent, read-out: MIC90) was 4.9 µM (≈ 7.94 µg/mL), the MIC90 ([3]; Staphylococcus aureus, VRSA, VRSA (n = 14), with reducing agent, read-out: MIC90) was 0.6 µM (≈ 0.972 µg/mL) and the MIC90 [3, 16] was 8. For the same compound, the MIC90 [3, 17] was 1, the “time to antibiotic penetration (BODIPY-labeled daptomycin binding)” value ([4]; in the presence of CF-301 at 1/32nd MIC) was 15 min and the “time to antibiotic penetration (BODIPY-labeled daptomycin binding)” value ([4]; without CF-301) was 180 min. The MIC ([5]; read-out: daptomycin MIC, ending values, passaged with PlySs2 (4 ug/ml) plus daptomycin, 30-day study) was 4 µg/mL, the MIC ([5]; read-out: daptomycin MIC, ending values, three daptomycin-only cultures, 30-day study) was 128 µg/mL (≈ 79 µM) and the “antibiotic MIC, starting value” [5] was 1 µg/mL. The “increase of daptomycin MIC” value ([5]; daptomycin-only cultures, 30-day study) was 64 to 128 fold, the “increase of daptomycin MIC” value ([5]; passaged with PlySs2 (4 ug/ml) plus daptomycin) was 4 fold and the “daptomycin MIC, ending values” ([5]; three daptomycin-only cultures, 30-day study) was 64 µg/mL. The “time to reach bactericidal levels (≥3-log10 reduction in CFUs)” value ([6]; 20 MSSA and 42 MRSA strains) was 6 hours, the “effective concentration in combination as fraction of MIC” value [9] was 1/1024 and the “most dilute concentration in combination that still inhibits growth” value [9] was 0.25 µg/mL. For the same compound, the “inhibition of MIC by surfactant” value ([10]; Survanta, up to 15%) was “up to 256 fold” and the “inhibition of MIC by surfactant” value ([10]; surfactant concentration of 1.25%) was “more than 20 fold”.
